Data as given in patent publication US20260116910A1, “POLYCYCLIC COMPOUNDS AND METHODS THEREOF” (HEPAITECH (BEIJING) BIOPHARMA TECHNOLOGY CO., LTD., priority 2021, published 2026).

Tests used:
Assay type in all cases: cell-based
human FXR (NR1H4) = target: T1, human FXR (NR1H4) (Homo sapiens, UniProt Q96RI1); experiment: Human FXR (NR1H4) agonist assessment, FXRE-NanoLuc reporter in HEK293T cells; settings: FXR activation, HEK293T FXRE-NanoLuc reporter, 24 hr; for EC50: read-out: EC50
T1 sequence (Q96RI1 1-476 isoform Q96RI1-1): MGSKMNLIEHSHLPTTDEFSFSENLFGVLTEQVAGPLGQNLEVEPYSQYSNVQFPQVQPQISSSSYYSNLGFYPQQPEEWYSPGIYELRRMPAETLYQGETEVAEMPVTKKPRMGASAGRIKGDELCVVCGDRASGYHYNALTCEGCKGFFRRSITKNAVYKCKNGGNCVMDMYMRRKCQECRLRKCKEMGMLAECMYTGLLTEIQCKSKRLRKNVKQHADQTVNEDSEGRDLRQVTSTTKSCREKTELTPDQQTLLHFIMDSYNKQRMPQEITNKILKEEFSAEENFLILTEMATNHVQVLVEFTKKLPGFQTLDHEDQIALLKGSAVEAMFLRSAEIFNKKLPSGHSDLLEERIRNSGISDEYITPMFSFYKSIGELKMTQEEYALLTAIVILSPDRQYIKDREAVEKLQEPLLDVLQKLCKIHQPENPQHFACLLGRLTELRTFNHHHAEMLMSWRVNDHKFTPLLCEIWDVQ
Procedure, shortened: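 HEK293T cells stably expressing human FXR with an FXRE-NanoLuc reporter were treated with compounds for 24 hr at 37 °C, with 0.01% DMSO as negative control. Medium was read for luminescence after 5 min with coelenterazine. EC50 was fitted by sigmoid to concentration-response data.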

human TGR5 = target: T2, human TGR5 (Homo sapiens, UniProt Q8TDU6); experiment: TGR5 agonist assessment, CRE-NanoLuc reporter in HEK293T cells
T2 sequence (Q8TDU6 1-330): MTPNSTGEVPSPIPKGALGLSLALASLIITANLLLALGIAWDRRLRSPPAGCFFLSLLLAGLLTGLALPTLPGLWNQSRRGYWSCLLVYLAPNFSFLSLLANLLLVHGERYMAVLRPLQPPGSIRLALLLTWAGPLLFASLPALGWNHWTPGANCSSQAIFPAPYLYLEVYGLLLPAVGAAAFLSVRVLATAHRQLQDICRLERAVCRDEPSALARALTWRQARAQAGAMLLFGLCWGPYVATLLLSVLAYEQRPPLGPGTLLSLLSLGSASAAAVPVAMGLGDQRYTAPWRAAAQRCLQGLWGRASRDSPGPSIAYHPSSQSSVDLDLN
Description: Cells were detached by centrifuging (1000 rpm, 3 min). The pellet was re-suspended in medium, and cell density was adjusted to about 1×10^6 cells/mL. […] Cells in the microplates were cultured overnight.
Culture medium was replaced, and compounds were added to the wells. 0.01% DMSO (v/v) served as negative control. Plates were incubated at 37° C. in 5% CO2 for 24 hr.
In the following day, a 10 μL aliquot of cell culture medium was removed from each well and combined with 40 μL culture medium plus […] assay buffer (containing 20 mM of the luciferase substrate coelenterazine). After 5 min incubation, luminescence was measured using an EnVision plate reader (PerkinElmer).
In some embodiments, gradient diluted solutions of several concentrations were used to treat cells and corresponding responses were used to fit sigmoid function and to derive EC50 in Origin.

MRGPRX4 = MRGPRX4 (Homo sapiens, UniProt Q96LA9); experiment: MRGPRX4 activation, Fluo-8 Ca2+ FLIPR assay in HEK293T cells stably expressing MRGPRX4; design: key to MRGPRX4 activation, Average / MRGPRX4 activation, Ave.: fluorescence change dF/F0; settings: for EC50: MRGPRX4 activation, Ca2+ fluorescence, no activation in tested range reported as III, read-out: Activity (EC50 μM)
Sequence of MRGPRX4 (Q96LA9 whole entry): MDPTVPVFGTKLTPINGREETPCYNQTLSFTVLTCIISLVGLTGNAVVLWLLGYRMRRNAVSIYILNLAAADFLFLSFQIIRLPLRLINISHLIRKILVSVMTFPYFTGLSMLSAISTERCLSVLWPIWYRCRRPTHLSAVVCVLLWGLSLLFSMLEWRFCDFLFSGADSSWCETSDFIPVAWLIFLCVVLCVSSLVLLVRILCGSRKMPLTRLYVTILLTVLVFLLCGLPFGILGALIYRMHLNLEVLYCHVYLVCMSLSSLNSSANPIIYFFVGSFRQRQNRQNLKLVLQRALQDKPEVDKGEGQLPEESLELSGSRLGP
Procedure, shortened: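 Cells seeded overnight to >95% confluence, loaded 40-60 min at room temperature with 2 μM Fluo-8 AM, then kept in HHBS. Baseline read 30 s, compound added, signal followed 150 s more.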

Compound	Efficacy (maximum measured induction of NanoLuc, normalized to CDCA set as 100%) (human FXR (NR1H4))	EC50 (human FXR (NR1H4))	EC50 (MRGPRX4)	MRGPRX4 activation, Average (MRGPRX4; E3-9, Conc. (Log[M]) −4.0)	MRGPRX4 activation, Average (MRGPRX4; E3-9, Conc. (Log[M]) −4.5)	MRGPRX4 activation, Average (MRGPRX4; E3-9, Conc. (Log[M]) −5.0)	MRGPRX4 activation, Average (MRGPRX4; E3-9, Conc. (Log[M]) −5.4)	MRGPRX4 activation, Average (MRGPRX4; E3-9, Conc. (Log[M]) −5.9)	MRGPRX4 activation, Average (MRGPRX4; E3-9, Conc. (Log[M]) −6.4)	MRGPRX4 activation, Average (MRGPRX4; E3-9, Conc. (Log[M]) −6.9)	MRGPRX4 activation, Average (MRGPRX4; E3-9, Conc. (Log[M]) −7.3)	MRGPRX4 activation, Average (MRGPRX4; E3-9, Conc. (Log[M]) −7.8)	MRGPRX4 activation, Average (MRGPRX4; E3-9, Conc. (Log[M]) −8.3)	also measured
CC[C@H]1[C@@H](O)[C@@H]2[C@H](CC[C@]3(C)[C@@H]([C@H](C)CCNC(=O)NS(=O)(=O)N(C)C)CC[C@@H]23)[C@@]2(C)CCCC[C@@H]12 [5-15]	C (100%<efficacy <=300%)	< 1 µM	> 100 µM											EC50 (human TGR5): 0.013 µM; MRGPRX4 activation, Average (MRGPRX4; E3-6-2, 1st of 6 concentration columns (head not in rows shown)): 0.087; MRGPRX4 activation, Average (MRGPRX4; E3-6-2, 3rd of 6 concentration columns (head not in rows shown)): 0.013; MRGPRX4 activation, Average (MRGPRX4; E3-6-2, 6th of 6 concentration columns (head not in rows shown)): 0.010; MRGPRX4 activation, Average (MRGPRX4; E3-6-2, concentration not given): 0.010
CC[C@H]1[C@@H](O)[C@@H]2[C@H](CC[C@]3(C)[C@@H]([C@H](C)CCNC(=O)NS(=O)(=O)c4ccc(C(C)(C)CF)cc4)CC[C@@H]23)[C@@]2(C)CC[C@H](F)C[C@@H]12 [9-1]	B (300%<efficacy <=400%)	< 1 µM	> 100 µM	0.019	0.021	0.012	0.018	0.014	0.019	0.016	0.016	0.012	0.018	
CC[C@H]1[C@@H](O)[C@@H]2[C@H](CC[C@]3(C)[C@@H]([C@H](C)CCNC(=O)NS(=O)(=O)c4cccs4)CC[C@@H]23)[C@@]2(C)CCCC[C@@H]12 [5-25]	C (100%<efficacy <=300%)	1 to 10 µM	> 100 µM	0.393	0.016	0.001	0.016	0.011	0.011	0.008	0.013	0.013	0.018	
CC[C@H]1[C@@H](O)[C@@H]2[C@H](CC[C@]3(C)[C@@H]([C@H](C)CCNC(=O)NS(=O)(=O)c4cc(F)cc(F)c4)CC[C@@H]23)[C@@]2(C)CC[C@H](F)C[C@@H]12 [9-3]	B (300%<efficacy <=400%)	< 1 µM	> 100 µM	0.006	0.004	0.018	0.019	0.019	0.016	0.014	0.018	0.016	0.016	
CC(=O)CC[C@@H](C)[C@H]1CC[C@H]2[C@@H]3CC[C@@H]4CCCC[C@]4(C)[C@H]3CC[C@]12C [compound 21]	C (100%<efficacy <=300%)	1 to 10 µM	> 100 µM											
CC[C@H]1[C@@H](OC(=O)c2cccc(I)c2)[C@@H]2[C@H](CC[C@]3(C)[C@@H]([C@H](C)CCC(=O)OC)CC[C@@H]23)[C@@]2(C)CCCC[C@@H]12 [1-5]	D (efficacy <=100%)	> 10 µM	50 to 100 µM											MRGPRX4 activation, fluorescence change (dF/F0), Average (MRGPRX4; Conc. (Log[M]) −4): 0.035; MRGPRX4 activation, fluorescence change (dF/F0), Average (MRGPRX4; Conc. (Log[M]) −4.5): −0.027; MRGPRX4 activation, fluorescence change (dF/F0), Average (MRGPRX4; Conc. (Log[M]) −5): −0.045; MRGPRX4 activation, fluorescence change (dF/F0), Average (MRGPRX4; Conc. (Log[M]) −5.5): −0.034; MRGPRX4 activation, fluorescence change (dF/F0), Average (MRGPRX4; Conc. (Log[M]) −6): −0.041; MRGPRX4 activation, fluorescence change (dF/F0), Average (MRGPRX4; Conc. (Log[M]) −7): −0.027; MRGPRX4 activation, fluorescence change (dF/F0), Average (MRGPRX4; Conc. (Log[M]) −8): −0.049; MRGPRX4 activation, fluorescence change (dF/F0), Average (MRGPRX4; Conc. (Log[M]) −9): −0.084
